Assay results as given in ChEMBL document CHEMBL4507298 (2021).

What was measured:
[1] = biological target: Serine/threonine-protein kinase BRSK1 (Homo sapiens) (UniProt Q8TDC3); conditions: Compound concentration 1000.0 nM
[2] = biological target: Mitogen-activated protein kinase kinase kinase 12 (Homo sapiens) (UniProt Q12852); conditions: Compound concentration 1000.0 nM
[3] = biological target: Transient receptor potential cation channel subfamily M member 6 (Homo sapiens) (UniProt Q9BX84); conditions: Compound concentration 1000.0 nM
[4] = biological target: Tyrosine-protein kinase JAK2 (Homo sapiens) (UniProt O60674); conditions: Compound concentration 1000.0 nM
[5] = biological target: Serine/threonine-protein kinase/endoribonuclease IRE1 (Homo sapiens) (UniProt O75460); conditions: Compound concentration 1000.0 nM
[6] = test system: Epidermal growth factor receptor (Homo sapiens), P00533 [UNDEFINED MUTATION]; conditions: Compound concentration 1000.0 nM
[7] = biological target: Tyrosine-protein kinase Fer (Homo sapiens) (UniProt P16591); conditions: Compound concentration 1000.0 nM
[8] = biological target: Serine/threonine-protein kinase PLK3 (Homo sapiens) (UniProt Q9H4B4); conditions: Compound concentration 1000.0 nM
[9] = biological target: Beta-adrenergic receptor kinase 1 (Homo sapiens) (UniProt P25098); conditions: Compound concentration 1000.0 nM
[10] = biological target: Beta-3 adrenergic receptor (Homo sapiens) (UniProt P13945); assay: beta 3 (h) CEREP ligand profiling; conditions: Compound concentration 10.0 uM
[11] = biological target: Serine/threonine-protein kinase 36 (Homo sapiens) (UniProt Q9NRP7); conditions: Compound concentration 1000.0 nM
[12] = biological target: Serine/threonine-protein kinase tousled-like 1 (Homo sapiens) (UniProt Q9UKI8); conditions: Compound concentration 1000.0 nM
[13] = biological target: Ribosomal protein S6 kinase alpha-4 (Homo sapiens) (UniProt O75676); conditions: Compound concentration 1000.0 nM
[14] = test system: Receptor-type tyrosine-protein kinase FLT3 (Homo sapiens), P36888 [D835H]; conditions: Compound concentration 1000.0 nM
CYP2C19 = CYP2C19 (Homo sapiens, UniProt P33261); assay: CYP2C19 inhibition CEREP ligand profiling; conditions: compound concentration 10 uM
[15] = biological target: Dual specificity protein kinase CLK1 (Homo sapiens) (UniProt P49759); conditions: Compound concentration 1000.0 nM
[16] = biological target: Serine/threonine-protein kinase 33 (Homo sapiens) (UniProt Q9BYT3); conditions: Compound concentration 1000.0 nM
[17] = biological target: Non-receptor tyrosine-protein kinase TYK2 (Homo sapiens) (UniProt P29597); conditions: Compound concentration 1000.0 nM
[18] = biological target: Histamine H2 receptor (Homo sapiens) (UniProt P25021); assay: H2 (h) CEREP ligand profiling; conditions: Compound concentration 10.0 uM
[19] = biological target: T1, Alpha-2C adrenergic receptor (Homo sapiens) (UniProt P18825); assay: alpha 2C (h) CEREP ligand profiling; conditions: Compound concentration 10.0 uM
T1 sequence (whole entry): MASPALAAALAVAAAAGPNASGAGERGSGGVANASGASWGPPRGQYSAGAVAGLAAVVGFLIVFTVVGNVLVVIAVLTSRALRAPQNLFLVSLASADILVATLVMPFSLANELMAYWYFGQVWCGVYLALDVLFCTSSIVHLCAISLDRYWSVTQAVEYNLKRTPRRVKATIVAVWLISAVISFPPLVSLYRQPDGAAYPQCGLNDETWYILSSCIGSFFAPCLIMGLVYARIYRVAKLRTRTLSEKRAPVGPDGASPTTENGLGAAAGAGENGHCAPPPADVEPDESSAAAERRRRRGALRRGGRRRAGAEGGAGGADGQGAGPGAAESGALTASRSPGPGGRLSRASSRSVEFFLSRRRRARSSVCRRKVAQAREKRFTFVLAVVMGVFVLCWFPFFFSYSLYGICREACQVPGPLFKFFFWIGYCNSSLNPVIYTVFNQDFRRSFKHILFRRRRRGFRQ

[20] = test system: Phosphatidylinositol 4,5-bisphosphate 3-kinase catalytic subunit alpha isoform (Homo sapiens), P42336 [I800L]; conditions: Compound concentration 1000.0 nM
[21] = biological target: Serine/threonine-protein kinase pim-3 (Homo sapiens) (UniProt Q86V86); conditions: Compound concentration 1000.0 nM
[22] = biological target: Endothelin-1 receptor (Homo sapiens) (UniProt P25101); assay: ETA (h) CEREP ligand profiling; conditions: Compound concentration 10.0 uM
[23] = biological target: Glucocorticoid receptor (Homo sapiens) (UniProt P04150); assay: GR (h) CEREP ligand profiling; conditions: Compound concentration 10.0 uM
[24] = biological target: Cyclin-dependent kinase 2 homolog (Plasmodium falciparum (isolate 3D7)) (UniProt P61075); conditions: Compound concentration 1000.0 nM
[25] = biological target: Serine/threonine-protein kinase WNK2 (Homo sapiens) (UniProt Q9Y3S1); conditions: Compound concentration 1000.0 nM
[26] = biological target: Tyrosine-protein kinase JAK1 (Homo sapiens) (UniProt P23458); conditions: Compound concentration 1000.0 nM
[27] = biological target: Tumor necrosis factor (Homo sapiens) (UniProt P01375); assay: TNF-alpha (h) CEREP ligand profiling; conditions: Compound concentration 10.0 uM
[28] = biological target: Serine/threonine-protein kinase Chk2 (Homo sapiens) (UniProt O96017); conditions: Compound concentration 1000.0 nM
[29] = biological target: Insulin receptor (Homo sapiens) (UniProt P06213); conditions: Compound concentration 1000.0 nM
[30] = biological target: SRSF protein kinase 2 (Homo sapiens) (UniProt P78362); conditions: Compound concentration 1000.0 nM
[31] = biological target: Phosphodiesterase 4 (Rattus norvegicus) (UniProt P14270+P14646+P14644+P54748); assay: Rolipram CEREP ligand profiling; format: protein assay; conditions: Compound concentration 10.0 uM
[32] = biological target: Dual 3',5'-cyclic-AMP and -GMP phosphodiesterase 11A (Homo sapiens) (UniProt Q9HCR9); assay: PDE11 (h) CEREP ligand profiling; conditions: Compound concentration 10.0 uM
[33] = biological target: Urotensin-2 receptor (Homo sapiens) (UniProt Q9UKP6); assay: UT (h) CEREP ligand profiling; conditions: Compound concentration 10.0 uM
[34] = biological target: Mitogen-activated protein kinase kinase kinase 11 (Homo sapiens) (UniProt Q16584); conditions: Compound concentration 1000.0 nM
[35] = biological target: Rhodopsin kinase GRK7 (Homo sapiens) (UniProt Q8WTQ7); conditions: Compound concentration 1000.0 nM
[36] = biological target: Melanocyte-stimulating hormone receptor (Homo sapiens) (UniProt Q01726); assay: MC1 CEREP ligand profiling; conditions: Compound concentration 10.0 uM
[37] = biological target: Kappa-type opioid receptor (Homo sapiens) (UniProt P41145); assay: kappa (KOP) CEREP ligand profiling; conditions: Compound concentration 10.0 uM
[38] = biological target: Mitogen-activated protein kinase 14 (Homo sapiens) (UniProt Q16539); assay: p38 alpha kinase (h) CEREP ligand profiling; conditions: Compound concentration 10.0 uM
Chain of Mitogen-activated protein kinase 14 (Homo sapiens) (Q16539 whole entry): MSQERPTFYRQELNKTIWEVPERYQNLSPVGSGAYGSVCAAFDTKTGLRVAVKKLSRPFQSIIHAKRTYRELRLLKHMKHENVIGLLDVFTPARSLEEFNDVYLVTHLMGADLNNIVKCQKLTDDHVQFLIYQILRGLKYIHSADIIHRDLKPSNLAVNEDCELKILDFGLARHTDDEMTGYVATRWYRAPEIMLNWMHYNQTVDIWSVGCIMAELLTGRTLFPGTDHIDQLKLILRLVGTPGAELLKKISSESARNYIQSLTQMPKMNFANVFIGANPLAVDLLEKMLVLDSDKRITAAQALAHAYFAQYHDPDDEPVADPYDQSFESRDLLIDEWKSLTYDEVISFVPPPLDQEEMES

Chain of Tyrosine-protein kinase JAK1 (Homo sapiens) (P23458 whole entry): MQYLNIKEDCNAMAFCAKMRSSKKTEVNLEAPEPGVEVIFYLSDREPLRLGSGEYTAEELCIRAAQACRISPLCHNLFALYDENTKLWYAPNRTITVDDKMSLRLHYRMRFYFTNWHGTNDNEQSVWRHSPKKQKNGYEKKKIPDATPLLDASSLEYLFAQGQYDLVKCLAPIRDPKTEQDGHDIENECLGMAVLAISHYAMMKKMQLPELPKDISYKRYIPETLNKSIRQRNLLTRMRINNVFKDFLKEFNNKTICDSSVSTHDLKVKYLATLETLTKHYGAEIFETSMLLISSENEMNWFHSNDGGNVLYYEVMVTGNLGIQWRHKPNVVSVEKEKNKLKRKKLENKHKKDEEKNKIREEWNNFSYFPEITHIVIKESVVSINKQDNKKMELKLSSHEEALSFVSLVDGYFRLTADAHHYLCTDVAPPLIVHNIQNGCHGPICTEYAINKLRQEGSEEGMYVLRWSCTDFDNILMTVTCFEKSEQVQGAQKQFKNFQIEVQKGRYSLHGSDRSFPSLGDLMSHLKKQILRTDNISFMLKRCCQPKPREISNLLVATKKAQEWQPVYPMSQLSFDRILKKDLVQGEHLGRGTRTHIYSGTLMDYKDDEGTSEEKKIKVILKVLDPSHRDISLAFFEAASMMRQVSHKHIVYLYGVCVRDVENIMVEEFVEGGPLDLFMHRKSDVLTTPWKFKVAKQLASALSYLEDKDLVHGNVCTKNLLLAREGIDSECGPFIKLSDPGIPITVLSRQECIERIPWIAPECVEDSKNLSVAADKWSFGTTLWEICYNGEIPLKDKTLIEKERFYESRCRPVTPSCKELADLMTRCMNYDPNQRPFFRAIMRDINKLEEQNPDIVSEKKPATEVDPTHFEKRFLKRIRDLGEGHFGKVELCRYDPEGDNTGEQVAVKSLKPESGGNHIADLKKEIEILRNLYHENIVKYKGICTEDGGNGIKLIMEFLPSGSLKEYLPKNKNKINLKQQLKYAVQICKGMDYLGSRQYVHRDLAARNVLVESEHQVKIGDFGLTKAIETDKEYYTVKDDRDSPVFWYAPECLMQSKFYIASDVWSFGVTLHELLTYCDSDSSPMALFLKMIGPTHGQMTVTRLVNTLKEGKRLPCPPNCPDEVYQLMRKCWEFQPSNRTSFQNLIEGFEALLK
Chain of SRSF protein kinase 2 (Homo sapiens) (P78362 whole entry, looked up): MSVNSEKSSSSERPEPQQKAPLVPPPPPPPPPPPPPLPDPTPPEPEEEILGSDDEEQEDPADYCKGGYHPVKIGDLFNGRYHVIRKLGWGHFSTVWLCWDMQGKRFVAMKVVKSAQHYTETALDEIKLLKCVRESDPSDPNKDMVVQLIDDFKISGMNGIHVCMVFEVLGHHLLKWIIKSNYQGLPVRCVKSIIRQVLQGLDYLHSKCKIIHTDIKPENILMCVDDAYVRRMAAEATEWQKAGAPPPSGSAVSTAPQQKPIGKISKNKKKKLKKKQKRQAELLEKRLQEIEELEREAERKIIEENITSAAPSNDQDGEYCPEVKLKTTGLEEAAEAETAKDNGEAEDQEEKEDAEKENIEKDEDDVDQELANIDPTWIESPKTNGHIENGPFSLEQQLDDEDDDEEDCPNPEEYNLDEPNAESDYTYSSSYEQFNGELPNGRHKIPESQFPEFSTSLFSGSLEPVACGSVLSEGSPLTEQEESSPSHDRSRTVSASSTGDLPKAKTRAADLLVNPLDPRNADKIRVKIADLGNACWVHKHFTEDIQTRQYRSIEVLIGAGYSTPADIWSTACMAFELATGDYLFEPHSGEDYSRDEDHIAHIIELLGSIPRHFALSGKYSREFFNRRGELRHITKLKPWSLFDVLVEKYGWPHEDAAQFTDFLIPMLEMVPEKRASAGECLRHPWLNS
Chain of Serine/threonine-protein kinase PLK3 (Homo sapiens) (Q9H4B4 whole entry, looked up): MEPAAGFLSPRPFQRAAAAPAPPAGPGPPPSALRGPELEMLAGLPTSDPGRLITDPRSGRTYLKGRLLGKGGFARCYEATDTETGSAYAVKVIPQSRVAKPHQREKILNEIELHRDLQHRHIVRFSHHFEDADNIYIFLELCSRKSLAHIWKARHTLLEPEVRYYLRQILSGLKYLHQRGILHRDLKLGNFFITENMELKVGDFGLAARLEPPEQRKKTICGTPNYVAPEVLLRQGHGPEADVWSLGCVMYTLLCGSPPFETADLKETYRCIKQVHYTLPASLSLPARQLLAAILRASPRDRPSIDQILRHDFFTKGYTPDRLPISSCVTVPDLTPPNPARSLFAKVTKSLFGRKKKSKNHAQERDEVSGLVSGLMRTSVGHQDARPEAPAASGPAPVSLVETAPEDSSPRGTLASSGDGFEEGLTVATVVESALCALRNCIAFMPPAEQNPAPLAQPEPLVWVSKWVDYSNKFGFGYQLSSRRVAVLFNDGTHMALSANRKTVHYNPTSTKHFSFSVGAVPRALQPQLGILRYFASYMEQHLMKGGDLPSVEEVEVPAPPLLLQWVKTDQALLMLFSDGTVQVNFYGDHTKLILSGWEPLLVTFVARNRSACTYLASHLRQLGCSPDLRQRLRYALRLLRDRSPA
Chain of Melanocyte-stimulating hormone receptor (Homo sapiens) (Q01726 whole entry, looked up): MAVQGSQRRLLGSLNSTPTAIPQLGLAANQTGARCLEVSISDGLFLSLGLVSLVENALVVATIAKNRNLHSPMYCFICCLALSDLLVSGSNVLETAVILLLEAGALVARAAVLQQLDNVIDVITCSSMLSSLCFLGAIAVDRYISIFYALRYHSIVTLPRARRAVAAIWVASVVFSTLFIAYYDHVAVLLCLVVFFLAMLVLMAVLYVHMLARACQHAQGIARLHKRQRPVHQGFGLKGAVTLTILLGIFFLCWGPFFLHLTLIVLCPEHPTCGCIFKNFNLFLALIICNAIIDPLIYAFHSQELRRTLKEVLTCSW
Chain of Dual specificity protein kinase CLK1 (Homo sapiens) (P49759 whole entry, looked up): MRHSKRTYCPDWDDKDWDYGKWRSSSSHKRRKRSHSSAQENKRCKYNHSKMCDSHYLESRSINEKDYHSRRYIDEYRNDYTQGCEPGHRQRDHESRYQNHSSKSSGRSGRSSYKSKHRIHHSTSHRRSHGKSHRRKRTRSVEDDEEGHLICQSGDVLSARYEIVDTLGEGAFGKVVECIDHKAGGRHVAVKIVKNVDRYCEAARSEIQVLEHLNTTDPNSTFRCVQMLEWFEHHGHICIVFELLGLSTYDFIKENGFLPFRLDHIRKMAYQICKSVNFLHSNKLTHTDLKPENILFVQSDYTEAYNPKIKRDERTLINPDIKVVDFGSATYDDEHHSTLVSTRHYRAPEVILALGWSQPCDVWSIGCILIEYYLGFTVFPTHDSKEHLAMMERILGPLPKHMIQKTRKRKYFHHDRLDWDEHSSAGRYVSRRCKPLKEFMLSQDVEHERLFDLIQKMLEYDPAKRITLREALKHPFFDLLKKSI
Chain of Serine/threonine-protein kinase 33 (Homo sapiens) (Q9BYT3 whole entry, looked up): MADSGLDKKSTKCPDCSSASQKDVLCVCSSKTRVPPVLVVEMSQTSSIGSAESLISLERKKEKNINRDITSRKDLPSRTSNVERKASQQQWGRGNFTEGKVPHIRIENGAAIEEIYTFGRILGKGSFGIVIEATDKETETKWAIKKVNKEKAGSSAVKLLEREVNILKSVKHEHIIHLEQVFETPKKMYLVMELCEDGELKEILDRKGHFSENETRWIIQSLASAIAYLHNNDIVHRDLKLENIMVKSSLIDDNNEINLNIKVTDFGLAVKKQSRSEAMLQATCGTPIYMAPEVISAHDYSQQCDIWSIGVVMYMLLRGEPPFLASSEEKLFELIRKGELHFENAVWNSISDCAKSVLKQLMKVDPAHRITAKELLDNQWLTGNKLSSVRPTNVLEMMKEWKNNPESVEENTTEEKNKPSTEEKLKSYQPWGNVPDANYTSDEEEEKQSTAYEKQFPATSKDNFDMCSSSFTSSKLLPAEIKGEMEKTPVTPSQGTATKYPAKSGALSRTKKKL
Chain of Serine/threonine-protein kinase Chk2 (Homo sapiens) (O96017 whole entry): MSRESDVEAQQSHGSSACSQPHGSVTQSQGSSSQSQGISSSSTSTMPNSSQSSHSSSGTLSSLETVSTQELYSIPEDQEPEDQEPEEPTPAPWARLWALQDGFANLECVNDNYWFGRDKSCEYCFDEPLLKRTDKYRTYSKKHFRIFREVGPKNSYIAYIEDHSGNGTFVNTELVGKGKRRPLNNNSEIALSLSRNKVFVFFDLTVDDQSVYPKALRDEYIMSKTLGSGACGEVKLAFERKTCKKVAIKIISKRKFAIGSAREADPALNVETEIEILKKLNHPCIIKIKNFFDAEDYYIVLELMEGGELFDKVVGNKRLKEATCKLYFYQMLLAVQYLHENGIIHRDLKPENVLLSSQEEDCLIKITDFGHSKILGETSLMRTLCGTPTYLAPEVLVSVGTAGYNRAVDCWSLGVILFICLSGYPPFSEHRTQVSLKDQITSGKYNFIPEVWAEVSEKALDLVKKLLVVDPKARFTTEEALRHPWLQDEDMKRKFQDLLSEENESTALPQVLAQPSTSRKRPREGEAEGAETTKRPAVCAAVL
Chain of Tumor necrosis factor (Homo sapiens) (P01375 whole entry): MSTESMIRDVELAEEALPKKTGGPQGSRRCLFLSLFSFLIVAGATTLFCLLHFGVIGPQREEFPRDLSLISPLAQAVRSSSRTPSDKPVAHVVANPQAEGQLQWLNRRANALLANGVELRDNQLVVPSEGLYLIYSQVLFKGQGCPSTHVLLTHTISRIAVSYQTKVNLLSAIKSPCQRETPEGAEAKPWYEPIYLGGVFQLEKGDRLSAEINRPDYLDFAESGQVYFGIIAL

Work on COc1ccc2cc(OCC3(C(=O)O)CN(C(=O)c4ccc(F)cc4)C3)ccc2c1 [PF-04418948] yielded a residual activity [1] of 85%, a residual activity [2] of 97% and a residual activity [3] of 98%. The residual activity [4] was 89%, the residual activity [5] was 80% and the residual activity [6] was 87%. It also gave a residual activity [7] of 74%, a residual activity [8] of 95% and a residual activity [9] of 72%. For the same compound, the inhibition [10] was 3%, the residual activity [11] was 89% and the residual activity [12] was 87%. The residual activity [13] was 85%, the residual activity [14] was 71% and the inhibition at 10 µM (CYP2C19) was 5% (not active). It also gave a residual activity [15] of 79%, a residual activity [16] of 98% and a residual activity [17] of 89%. The inhibition [18] was 3%, the inhibition [19] was 4% and the residual activity [20] was 90%. The residual activity [21] was 98%, the inhibition [22] was 3% and the inhibition [23] was -1%. The residual activity [24] was 97%, the residual activity [25] was 84% and the residual activity [26] was 96%. It also gave an inhibition [27] of -1%, a residual activity [28] of 93% and a residual activity [29] of 93%. It also gave a residual activity [30] of 84%, an inhibition [31] of 3% and an inhibition [32] of 14%. The inhibition [33] was 14%, the residual activity [34] was 79% and the residual activity [35] was 93%. The inhibition [36] was 6%, the inhibition [37] was 46% and the inhibition [38] was -1%.
